Test: Binding affinity was determined against uridine phosphorylase in Sarcoma 180 cells
Format: cell-based
`O=c1[nH]c(=O)n(COC(CO)CO)cc1Cc1ccccc1` showed a Ki of 98 nM. With `NCC(CO)OCn1cc(Cc2ccccc2)c(=O)[nH]c1=O` (stereo not drawn) the Ki was 20 nM. `O=c1[nH]c(=O)n(COCCO)cc1Cc1ccccc1` showed a Ki of 98 nM.

— ChEMBL document CHEMBL1122907, “Synthesis of 1-[[2-hydroxy-1-(hydroxymethyl)ethoxy] methyl]-5-benzyluracil and its amino analogue, new potent uridine phosphorylase inhibitors with high water solubility” (J Med Chem, 1985)
